# Laboratory results as given in patent US10689378B2, “Triazolopyridine compounds and uses thereof” (Novartis AG, priority 2016, dated 2020).
# Read-outs that look alike come from different tables or passages of the source.
# Columns and labels:
# [1] = target: wild type PRC2 (wtPRC2) complex (Homo sapiens, UniProt O75530); assay: EED LC-MS assay (SAH production by PRC2); format: biochemical
# Method: Compounds of the present invention were assessed for their ability to inhibit PRC2 activity in a pentameric complex of EZH2, SUZ12, EED, Rbap48 and AEBP in biochemical assays. The ability of compounds of the present invention to inhibit cellular activity of PRC2 was assessed by analysing histone H3 lysine 27 methylation in human cell lines. The ability of compounds of the present invention to inhibit cancers was derived from their ability to modulate activity in human cancer cell lines bearing specific dependence to PRC2 activity to maintain cancerous growth.
# Representative compounds of the present invention were serially and separately diluted 3-fold in DMSO to obtain a total of eight or twelve concentrations. Then the test compounds at each concentration (120 nL of each) were transferred by Mosquito into a 384-well Perkin Elmer ProxiPlate 384 plus plates. Solutions (6 μL) of 24 nM the wild type PRC2 (wtPRC2) complex and 2 μM SAM in reaction buffer (20 mM Tris, pH 8.0, 0.1% BSA, 0.01% Triton, 0.5 mM DTT) were added to the wells that were then incubated with the test compound for 20 min. A 6 μL solution of 3 μM of the peptide substrate H3K27Me0 (histone H3[21-44]-biotin) in reaction buffer was added to initiate each reaction. The final components in the reaction solution include 12 nM wtPRC2 complex, 1 μM SAM, and 1.5 μM H3K27me0 peptide with varying concentration of the compounds. A positive control consisted of the enzyme, 1 μM SAM and 1.5 μM substrate in the absence of the test compound, and a negative control consisted of 1 μM SAM and 1.5 μM substrate only. Each reaction was incubated at rt for 120 min, then stopped by addition of 3 μL per of quench solution (2.5% TFA with 320 nM d4-SAH). The reaction mixture was centrifuged (Eppendorf centrifuge 5810, Rotor A-4-62) for 2 min at 2000 rpm and read on an API 4000 triple quadrupole mass spec with Turbulon Spray (Applied Biosystem) coupled with Prominence UFLC (Shimadzu). The levels of SAH production were then normalized based on the values coming from the positive and negative controls to give percent enzyme activities. The data were then fit to a dose response equation using the program Helios to get the IC50 values of the test compound.
# [2] = target: T1, EED (1-441)-His protein (Homo sapiens, UniProt O75530); assay: EED-H3K27Me3 peptide competition binding assay by AlphaScreen
# T1 construct: 30 nM EED (1-441)-His protein
# T1 sequence (O75530 whole entry): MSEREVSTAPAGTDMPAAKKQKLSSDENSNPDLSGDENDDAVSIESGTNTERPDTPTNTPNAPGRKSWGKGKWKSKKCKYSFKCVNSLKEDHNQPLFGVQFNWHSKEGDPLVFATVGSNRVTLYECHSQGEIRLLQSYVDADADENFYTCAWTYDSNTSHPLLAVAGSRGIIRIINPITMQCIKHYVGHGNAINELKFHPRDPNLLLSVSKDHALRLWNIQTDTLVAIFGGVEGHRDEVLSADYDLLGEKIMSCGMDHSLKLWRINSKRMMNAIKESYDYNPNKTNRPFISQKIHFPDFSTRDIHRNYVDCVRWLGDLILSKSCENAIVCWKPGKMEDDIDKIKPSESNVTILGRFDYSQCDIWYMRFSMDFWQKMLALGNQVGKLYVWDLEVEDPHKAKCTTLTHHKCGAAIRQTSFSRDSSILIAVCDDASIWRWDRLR
# Procedure, shortened: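 Serially diluted compound (12 points, 3-fold) incubated 20 min with 30 nM EED(1-441)-His and 15 nM biotin-H3K27Me3(19-33) peptide in 25 mM HEPES pH 8, 0.02% Tween-20, 0.5% BSA. Ni-chelate acceptor/streptavidin donor beads (10 μg/mL each) added, 1 h rt dark; 615 nm emission normalized to controls, dose-response fit for IC50.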
# [3] = test system: H3K27 methylation in G401 cell; assay: ELISA (H3K27 methylation) assay in G401 cells; format: cell-based, human; conditions: Homo sapiens
# Procedure, shortened: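 IC50 from dose-response fit of percent inhibition relative to DMSO, using H3K27me3/me2 ELISA signal (ECL) normalized to histone H3. Histones HCl-extracted after 48 h compound exposure of G401 cells at up to 20 μM, 8- or 12-point 3-fold series.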
# [4] = PRC2 LC-MS assay, read-out: (b) IC50 EED LC-MS Qualified
# [5] = EED-H3K27Me3 peptide competition, AlphaScreen, read-out: (a) IC50 EED Alphascreen binding Qualified
# [6] = G-401, H3K27 methylation ELISA, read-out: (c) IC50 ELISA Qualified
# [7] = read-out: (b) IC50, EED LC-MS Qualified
# [8] = read-out: (a) IC50, EED Alphascreen binding Qualified
# [9] = G-401, read-out: (c) IC50, ELISA Qualified
# Chain of wild type PRC2 (wtPRC2) complex (O75530 whole entry): as above
# Chain of wild type PRC2 (wtPRC2) complex (Q15910 whole entry partner): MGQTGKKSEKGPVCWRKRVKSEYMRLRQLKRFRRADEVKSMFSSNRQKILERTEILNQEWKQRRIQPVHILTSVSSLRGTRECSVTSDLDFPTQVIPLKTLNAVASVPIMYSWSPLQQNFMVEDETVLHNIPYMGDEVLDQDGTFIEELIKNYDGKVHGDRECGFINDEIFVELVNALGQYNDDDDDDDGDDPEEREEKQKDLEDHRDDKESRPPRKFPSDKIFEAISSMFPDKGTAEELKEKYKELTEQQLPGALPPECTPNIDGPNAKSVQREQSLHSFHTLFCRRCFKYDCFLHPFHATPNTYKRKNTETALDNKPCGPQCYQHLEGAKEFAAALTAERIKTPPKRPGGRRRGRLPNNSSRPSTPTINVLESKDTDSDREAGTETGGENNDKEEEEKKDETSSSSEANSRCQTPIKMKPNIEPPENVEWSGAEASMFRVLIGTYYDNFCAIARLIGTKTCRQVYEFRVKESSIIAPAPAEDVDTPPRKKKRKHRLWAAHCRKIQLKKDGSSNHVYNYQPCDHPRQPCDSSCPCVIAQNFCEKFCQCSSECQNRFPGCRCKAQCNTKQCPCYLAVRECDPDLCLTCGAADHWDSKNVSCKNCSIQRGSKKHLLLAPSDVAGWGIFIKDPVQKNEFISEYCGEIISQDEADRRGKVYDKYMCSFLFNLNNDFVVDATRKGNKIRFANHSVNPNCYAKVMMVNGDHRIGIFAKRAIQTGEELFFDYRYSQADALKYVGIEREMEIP
# Chain of wild type PRC2 (wtPRC2) complex (Q15022 whole entry partner): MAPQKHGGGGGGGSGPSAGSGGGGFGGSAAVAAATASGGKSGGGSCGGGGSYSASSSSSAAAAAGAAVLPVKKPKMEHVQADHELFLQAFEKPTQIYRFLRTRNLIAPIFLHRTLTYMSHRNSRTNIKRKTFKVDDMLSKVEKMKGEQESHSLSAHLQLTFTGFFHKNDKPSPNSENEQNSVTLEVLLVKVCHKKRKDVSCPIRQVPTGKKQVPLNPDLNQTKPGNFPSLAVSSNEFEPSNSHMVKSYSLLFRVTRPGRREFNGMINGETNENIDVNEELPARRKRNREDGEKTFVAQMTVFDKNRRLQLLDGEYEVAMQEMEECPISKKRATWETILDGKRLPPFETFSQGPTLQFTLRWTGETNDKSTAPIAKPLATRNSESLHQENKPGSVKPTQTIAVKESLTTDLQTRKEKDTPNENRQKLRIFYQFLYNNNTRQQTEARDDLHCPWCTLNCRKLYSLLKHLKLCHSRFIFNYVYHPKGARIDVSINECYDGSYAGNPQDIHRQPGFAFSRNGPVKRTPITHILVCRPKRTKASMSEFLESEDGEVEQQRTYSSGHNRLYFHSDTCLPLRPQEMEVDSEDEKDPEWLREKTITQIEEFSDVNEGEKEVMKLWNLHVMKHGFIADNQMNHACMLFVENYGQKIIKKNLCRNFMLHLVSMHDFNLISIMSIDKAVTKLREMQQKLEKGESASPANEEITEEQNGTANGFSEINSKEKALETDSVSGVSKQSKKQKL
# Chain of wild type PRC2 (wtPRC2) complex (Q09028 whole entry partner): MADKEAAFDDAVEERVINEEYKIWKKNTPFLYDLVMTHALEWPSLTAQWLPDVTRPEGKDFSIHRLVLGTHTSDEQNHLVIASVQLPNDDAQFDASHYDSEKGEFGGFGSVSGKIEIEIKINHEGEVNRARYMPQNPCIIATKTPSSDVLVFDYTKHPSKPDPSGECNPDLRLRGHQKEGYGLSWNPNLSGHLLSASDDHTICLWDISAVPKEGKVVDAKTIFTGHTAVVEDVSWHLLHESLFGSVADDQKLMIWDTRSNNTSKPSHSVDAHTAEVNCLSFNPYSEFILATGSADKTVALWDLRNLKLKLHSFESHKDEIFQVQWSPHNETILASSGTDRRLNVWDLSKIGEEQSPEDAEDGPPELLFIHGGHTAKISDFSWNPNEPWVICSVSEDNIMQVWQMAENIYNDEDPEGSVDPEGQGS
# Chain of wild type PRC2 (wtPRC2) complex (Q6ZN18 whole entry partner): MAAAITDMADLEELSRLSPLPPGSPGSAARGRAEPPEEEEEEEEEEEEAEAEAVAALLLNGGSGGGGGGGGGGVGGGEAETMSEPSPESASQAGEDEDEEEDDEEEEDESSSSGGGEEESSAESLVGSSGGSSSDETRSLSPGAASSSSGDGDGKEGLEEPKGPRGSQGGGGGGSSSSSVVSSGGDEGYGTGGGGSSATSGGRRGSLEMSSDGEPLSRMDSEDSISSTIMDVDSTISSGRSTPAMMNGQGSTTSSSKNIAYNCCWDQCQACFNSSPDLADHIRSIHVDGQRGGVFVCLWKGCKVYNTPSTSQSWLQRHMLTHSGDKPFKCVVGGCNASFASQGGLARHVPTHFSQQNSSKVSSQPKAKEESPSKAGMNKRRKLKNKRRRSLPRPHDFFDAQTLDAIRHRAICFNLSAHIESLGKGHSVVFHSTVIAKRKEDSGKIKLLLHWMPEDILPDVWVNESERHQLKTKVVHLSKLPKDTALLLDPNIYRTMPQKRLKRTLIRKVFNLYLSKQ
SMILES,"IC50 [1, 4] [nM]","IC50 [2, 5] [nM]","IC50 [3, 6] [nM]","IC50 [1, 7] [nM]","IC50 [2, 8] [nM]","IC50 [3, 9] [nM]",also measured
"COc1ccccc1CNc1ccc(-c2ccc(S(=O)(=O)N3CCCC3)cc2)c2nncn12 [Example 68, N-(2-methoxybenzyl)-8-(4-(pyrrolidin-1-ylsulfonyl)phenyl)-[1,2,4]triazolo[4,3-a] pyridin-5-amine]",–,–,–,311,16.7,49.7,–
"COc1cccc(F)c1CNc1ccc(-c2ccc(S(=O)(=O)C3CCNCC3)nc2)c2nncn12 [Example 179, N-(2-fluoro-6-methoxybenzyl)-8-(6-(piperidin-4-ylsulfonyl)pyridin-3-yl)-[1,2,4]triazolo[4,3-a]pyridin-5-amine]",174,24.8,13.2,–,–,–,–
"COc1cccc(F)c1CNc1ccc(-c2ccc(S(C)(=O)=O)cc2C)c2nncn12 [Example 229, N-(2-fluoro-6-methoxybenzyl)-8-(2-methyl-4-(methylsulfonyl)phenyl)-[1,2,4]triazolo[4,3-a]pyridin-5-amine]",55.9,16.1,13.5,–,–,–,–
"COc1c(F)ccc(F)c1CNc1ccc(-c2cnc(C)nc2C)c2nncn12 [Example 333, N-(3,6-difluoro-2-methoxybenzyl)-8-(2,4-dimethylpyrimidin-5-yl)-[1,2,4] triazolo[4,3-a]pyridin-5-amine]",286,95.1,67.6,–,–,–,–
"COc1ccccc1CNc1ccc(-c2ccc(C(C)N3CCCC3)cc2)c2nncn12 (centres unmarked) [Example 32, N-(2-methoxybenzyl)-8-(4-(1-(pyrrolidin-1-yl)ethyl)phenyl)-[1,2,4] triazolo[4,3-a]pyridin-5-amine]",–,–,–,142,17.4,38,–
"COc1ccccc1CNc1ccc(-c2ccc(C(=O)N(C)C)cc2F)c2nncn12 [Example 71, 3-fluoro-4-(5-((2-methoxybenzyl)amino)-[1,2,4]triazolo[4,3-a]pyridin-8-yl)-N,N-dimethylbenzamide]",–,–,–,275,34.9,43.4,–
"COc1cccc(F)c1CNc1ccc(-c2ccc(S(N)(=O)=O)cc2)c2nncn12 [Example 100, 4-(5-((2-fluoro-6-methoxybenzyl)amino)-[1,2,4]triazolo[4,3-a]pyridin-8-yl)benzenesulfonamide]",–,–,–,139,12.4,40,–
"COc1cccc(F)c1CNc1ccc(-c2ccc(C(=O)N(C)C)cc2C)c2nncn12 [Example 231, 4-(5-((2-fluoro-6-methoxybenzyl)amino)-[1,2,4]triazolo[4,3-a]pyridin-8-yl)-N,N,3-trimethylbenzamide]",29.1,7.7,3.4,–,–,–,–
"COc1cccc(F)c1CNc1ccc(-c2cnc(C)nc2OC)c2nncn12 [Example 372, N-(2-fluoro-6-methoxybenzyl)-8-(4-methoxy-2-methylpyrimidin-5-yl)-[1,2,4]triazolo[4,3-a]pyridin-5-amine]",–,–,–,–,–,–,"IC50 ([1]; read-out: (b) IC50 EED LC-MS Qualified): 118 nM; IC50 ([2]; read-out: (a) IC50 EED Alphascreen binding Qualified): 21.1 nM; IC50 ([3]; G-401, read-out: (c) IC50 ELISA Qualified): 33.8 nM"
"COc1ccc(-c2ccc(NCc3c(F)cc(F)cc3OC)n3cnnc23)c(C)n1 [Example 319, N-(2,4-difluoro-6-methoxybenzyl)-8-(6-methoxy-2-methylpyridin-3-yl)-[1,2,4] triazolo[4,3-a]pyridin-5-amine]",130,28.5,40.7,–,–,–,–
"COc1ccccc1CNc1ccc(-c2ccc(S(C)(=O)=O)cc2)c2nncn12 [Example 25, N-(2-methoxybenzyl)-8-(4-(methylsulfonyl)phenyl)-[1,2,4]triazolo[4,3-a]pyridin-5-amine]",–,–,–,151,33.6,50.3,–
"COc1cccc(F)c1CNc1ccc(-c2ccc(NS(C)(=O)=O)c(F)c2)c2nncn12 [Example 106, N-(2-fluoro-4-(5-((2-fluoro-6-methoxybenzyl)amino)-[1,2,4]triazolo[4,3-a]pyridin-8-yl)phenyl) methanesulfonamide]",–,–,–,454,46.8,53,–
"COc1cccc(F)c1CNc1ccc(-c2cn(C)nc2CO)c2nncn12 [Example 330, (4-(5-((2-fluoro-6-methoxy benzyl)amino)-[1,2,4]triazolo[4,3-a]pyridin-8-yl)-1-methyl-1H-pyrazol-3-yl) methanol]",96.2,24,24,–,–,–,–
"COc1ccccc1CNc1ccc(-c2ccc(CN3CCOCC3)cc2)c2nncn12 [Example 30, N-(2-methoxybenzyl)-8-(4-(morpholinomethyl)phenyl)-[1,2,4]triazolo[4,3-a]pyridin-5-amine]",–,–,–,483,38.2,113,–
"COc1cccc(F)c1CNc1ccc(-c2ccc(S(=O)(=O)NCCO)cc2)c2nncn12 [Example 126, 4-(5-((2-fluoro-6-methoxybenzyl)amino)-[1,2,4]triazolo[4,3-a]pyridin-8-yl)-N-(2-hydroxyethyl) benzenesulfonamide]",–,–,–,1740,11.5,5,–
"COc1ccc(F)c(CNc2ccc(-c3ccncc3)c3nncn23)c1 [Example 99, N-(2-fluoro-5-methoxybenzyl)-8-(pyridin-4-yl)-[1,2,4]triazolo[4,3-a] pyridin-5-amine]",–,–,–,–,255,385,–

# More lines, main results first:
"IC50 [1, 4] [nM]","IC50 [2, 5] [nM]","IC50 [3, 6] [nM]","IC50 [1, 7] [nM]","IC50 [2, 8] [nM]","IC50 [3, 9] [nM]",SMILES,also measured
128,28.4,30.3,–,–,–,"COc1cccc(F)c1CNc1ccc(-c2cnn(C(C)C)c2C)c2nncn12 [Example 289, N-(2-fluoro-6-methoxybenzyl)-8-(1-isopropyl-5-methyl-1H-pyrazol-4-yl)-[1,2,4] triazolo[4,3-a]pyridin-5-amine]",–
–,–,–,299,27.1,103,"COc1cccc(F)c1CNc1ccc(-c2cnc(N3CCN(C(C)C)CC3)c(Cl)c2)c2nncn12 [Example 109, 8-(5-chloro-6-(4-isopropylpiperazin-1-yl)pyridin-3-yl)-N-(2-fluoro-6-methoxybenzyl)-[1,2,4] triazolo[4,3-a]pyridin-5-amine]",–
–,–,–,35.2,10.6,4.3,COc1cccc(F)c1CNc1ccc(-c2cncn2C)c2nncn12 [Example 8],–
215,15.7,17.3,–,–,–,"COc1cccc(F)c1CNc1ccc(-c2cnc(C)cc2C(F)F)c2nncn12 [Example 316, 8-(4-(difluoromethyl)-6-methylpyridin-3-yl)-N-(2-fluoro-6-methoxybenzyl)-[1,2,4]triazolo[4,3-a]pyridin-5-amine]",–
117,18.6,17.4,–,–,–,"COc1cc(C)c(-c2ccc(NCc3c(F)cccc3OC)n3cnnc23)cn1 [Example 308, N-(2-fluoro-6-methoxybenzyl)-8-(6-methoxy-4-methylpyridin-3-yl)-[1,2,4] triazolo[4,3-a]pyridin-5-amine]",–
150,20,55,–,–,–,"COc1cccc(F)c1CNc1ccc(-c2ccc(N3CCCC3=O)nc2)c2nncn12 [Example 215, 1-(5-(5-((2-fluoro-6-methoxybenzyl)amino)-[1,2,4]triazolo[4,3-a]pyridin-8-yl)pyridin-2-yl)pyrrolidin-2-one]",–
946,34.3,25,–,–,–,"CNC(=O)Cc1cncc(-c2ccc(NCc3c(F)cccc3OC)n3cnnc23)c1 [Example 217, 2-(5-(5-((2-fluoro-6-methoxybenzyl)amino)-[1,2,4]triazolo[4,3-a]pyridin-8-yl)pyridin-3-yl)-N-methyl acetamide]",–
–,–,–,18.8,10.9,8.7,"COc1cccc(F)c1CNc1ccc(-c2cccnc2C)c2nncn12 [Example 2, N-(2-Fluoro-6-methoxybenzyl)-8-(2-methylpyridin-3-yl)-[1,2,4]triazolo[4,3-a]pyridin-5-amine]",–
